{"source": "ChEMBL document CHEMBL5244280", "about": "“Evodiamine Lowers Blood Lipids by Up-Regulating the PPARγ/ABCG1 Pathway in High-Fat-Diet-Fed Mice” (J Nat Prod, 2021)", "key": {"[1]": {"experiment": "Toxicity in high fat diet fed hyperlipidemic ICR mouse model assessed as ratio of liver weight to body weight at 10 mg/kg, ig administered daily via gavage for 8 weeks (reference value: 4.23 +/-0.79)", "assay_type": "organism-based", "settings": "in vivo, po, 1344 h"}, "[2]": {"tested_on": "Mus musculus", "experiment": "Protection against hyperlipidemia in high fat diet-fed hyperlipidemic ICR mouse model assessed as serum HDL-C content at 10 mg/kg, ig administered daily via gavage for 8 weeks by spectrophotometric analysis", "assay_type": "functional, organism-based"}, "[3]": {"experiment": "Toxicity in high fat diet fed hyperlipidemic ICR mouse model assessed as ratio of kidney weight to body weight at 10 mg/kg, ig administered daily via gavage for 8 weeks (reference value: 1.34 +/-0.09)", "assay_type": "organism-based", "settings": "in vivo, po, 1344 h"}, "[4]": {"tested_on": "Mus musculus", "experiment": "Protection against hyperlipidemia in high fat diet-fed hyperlipidemic ICR mouse model assessed as reduction in serum total cholesterol content at 20 mg/kg, ig administered daily via gavage for 8 weeks by spectrophotometric analysis", "assay_type": "functional, organism-based"}, "[5]": {"experiment": "Toxicity in normal diet fed ICR mouse assessed as liver histological changes at 10 mg/kg, ig administered daily via gavage for 8 weeks by Hematoxylin and eosin staining based analysis", "assay_type": "organism-based", "settings": "in vivo, po, 1344 h"}, "[6]": {"tested_on": "Mus musculus", "experiment": "Upregulation of ABCA1 mRNA expression in liver of high fat diet fed hyperlipidemic ICR mouse model at 10 mg/kg, ig administered daily via gavage for 8 weeks by qPCR analysis", "assay_type": "functional, organism-based"}, "[7]": {"biological_target": "T1, Retinoic acid receptor RXR-alpha (Homo sapiens) (UniProt P19793)", "T1 sequence (whole entry)": "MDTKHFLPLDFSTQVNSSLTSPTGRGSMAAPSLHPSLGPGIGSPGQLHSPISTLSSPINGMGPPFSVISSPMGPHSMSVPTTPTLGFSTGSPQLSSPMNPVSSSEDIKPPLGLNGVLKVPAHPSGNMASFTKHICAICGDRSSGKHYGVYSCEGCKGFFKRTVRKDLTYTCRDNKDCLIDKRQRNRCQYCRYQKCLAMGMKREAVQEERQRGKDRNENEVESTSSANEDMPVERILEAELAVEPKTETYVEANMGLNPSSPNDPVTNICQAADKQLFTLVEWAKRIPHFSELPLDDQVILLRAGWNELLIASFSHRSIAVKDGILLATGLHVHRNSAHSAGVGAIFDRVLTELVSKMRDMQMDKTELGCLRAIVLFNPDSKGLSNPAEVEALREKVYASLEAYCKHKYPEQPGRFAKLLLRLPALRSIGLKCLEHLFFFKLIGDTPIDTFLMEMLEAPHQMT", "experiment": "Agonist activity at human RXR-alpha expressed in HEK293 cells co-transfected with luciferase reporter plasmid assessed as receptor transactivation at 10 uM incubated for 18 hrs by luciferase reporter gene assay relative to control", "assay_type": "cell-based"}, "[8]": {"experiment": "Toxicity in high fat diet fed hyperlipidemic ICR mouse model assessed as ratio of lung weight to body weight at 10 mg/kg, ig administered daily via gavage for 8 weeks (reference value: 0.93 +/-0.28)", "assay_type": "organism-based", "settings": "in vivo, po, 1344 h"}, "[9]": {"tested_on": "Mus musculus", "experiment": "Upregulation of ABCG5 mRNA expression in liver of high fat diet fed hyperlipidemic ICR mouse model at 10 mg/kg, ig administered daily via gavage for 8 weeks by qPCR analysis", "assay_type": "functional, organism-based"}, "[10]": {"tested_on": "Mus musculus", "experiment": "Upregulation of NPC1L1 protein expression in liver of high fat diet fed hyperlipidemic ICR mouse model at 10 mg/kg, ig administered daily via gavage for 8 weeks by western blotting analysis", "assay_type": "functional, organism-based"}, "[11]": {"tested_on": "Mus musculus", "experiment": "Protection against hyperlipidemia in high fat diet-fed hyperlipidemic ICR mouse model assessed as serum HDL-C content at 20 mg/kg, ig administered daily via gavage for 8 weeks by spectrophotometric analysis", "assay_type": "functional, organism-based"}, "[12]": {"experiment": "Toxicity against normal diet-fed ICR mouse assessed as effect on plasma total cholesterol content at 10 mg/kg, ig administered daily via gavage for 8 weeks by spectrophotometric analysis", "assay_type": "organism-based", "settings": "in vivo, po, 1344 h"}, "[13]": {"tested_on": "Mus musculus", "experiment": "Protection against hyperlipidemia in high fat diet-fed hyperlipidemic ICR mouse model assessed as reduction in serum triglyceride content at 10 mg/kg, ig administered daily via gavage for 8 weeks by spectrophotometric analysis", "assay_type": "functional", "settings": "po, 1344 h"}, "[14]": {"tested_on": "Mus musculus", "experiment": "Upregulation of PPAR-gamma protein expression in liver of high fat diet fed hyperlipidemic ICR mouse model at 10 to 20 mg/kg, ig administered daily via gavage for 8 weeks by western blotting analysis", "assay_type": "functional, organism-based", "settings": "dose 10-20 mg/kg"}, "[15]": {"experiment": "Toxicity in high fat diet fed hyperlipidemic ICR mouse model assessed as ratio of stomach weight to body weight at 10 mg/kg, ig administered daily via gavage for 8 weeks (reference value: 1.41 +/-0.34)", "assay_type": "organism-based", "settings": "in vivo, po, 1344 h"}, "[16]": {"tested_on": "Mus musculus", "experiment": "Protection against hyperlipidemia in high fat diet-fed hyperlipidemic ICR mouse model assessed as reduction in hepatic triglyceride content at 20 mg/kg, ig administered daily via gavage for 8 weeks by colorimetric assay", "assay_type": "functional, organism-based"}, "[17]": {"tested_on": "Mus musculus", "experiment": "Protection against hyperlipidemia in high fat diet-fed hyperlipidemic ICR mouse model assessed as reduction in hepatic TBA content at 10 to 20 mg/kg, ig administered daily via gavage for 8 weeks by colorimetric assay", "assay_type": "functional, organism-based", "settings": "dose 10-20 mg/kg"}, "[18]": {"tested_on": "Mus musculus", "experiment": "Upregulation of SR-B1 mRNA expression in liver of high fat diet fed hyperlipidemic ICR mouse model at 10 mg/kg, ig administered daily via gavage for 8 weeks by qPCR analysis", "assay_type": "functional, organism-based"}, "[19]": {"tested_on": "Mus musculus", "experiment": "Upregulation of SR-B1 protein expression in liver of high fat diet fed hyperlipidemic ICR mouse model at 10 mg/kg, ig administered daily via gavage for 8 weeks by western blotting analysis", "assay_type": "functional, organism-based"}, "[20]": {"experiment": "Toxicity in normal diet fed ICR mouse assessed as effect on food intake at 10 mg/kg, ig administered daily via gavage for 8 weeks", "assay_type": "organism-based", "settings": "in vivo, po, 1344 h"}, "[21]": {"experiment": "Toxicity against normal diet-fed ICR mouse assessed as effect on plasma LDL-C content at 10 mg/kg, ig administered daily via gavage for 8 weeks by spectrophotometric analysis", "assay_type": "organism-based", "settings": "in vivo, po, 1344 h"}, "[22]": {"tested_on": "Mus musculus", "experiment": "Protection against hyperlipidemia in high fat diet-fed hyperlipidemic ICR mouse model assessed as reduction in serum LDL-C content at 10 mg/kg, ig administered daily via gavage for 8 weeks by spectrophotometric analysis", "assay_type": "functional", "settings": "po, 1344 h"}, "[23]": {"experiment": "Toxicity in normal diet fed ICR mouse assessed as ratio of heart weight to body weight at 10 mg/kg, ig administered daily via gavage for 8 weeks (reference value: 0.46 +/-0.03)", "assay_type": "organism-based", "settings": "in vivo, po, 1344 h"}, "[24]": {"tested_on": "HEK293", "experiment": "Agonist activity at human PPAR-beta expressed in HEK293 cells co-transfected with luciferase reporter plasmid assessed as receptor transactivation at 10 uM incubated for 18 hrs by luciferase reporter gene assay relative to control", "assay_type": "cell-based"}, "[25]": {"experiment": "Toxicity in normal diet fed ICR mouse assessed as liver morphological changes at 10 mg/kg, ig administered daily via gavage for 8 weeks", "assay_type": "organism-based", "settings": "in vivo, po, 1344 h"}, "[26]": {"tested_on": "Mus musculus", "experiment": "Protection against hyperlipidemia in high fat diet-fed hyperlipidemic ICR mouse model assessed as reduction in hepatic total cholesterol content at 20 mg/kg, ig administered daily via gavage for 8 weeks by colorimetric assay", "assay_type": "functional, organism-based"}, "[27]": {"tested_on": "Mus musculus", "experiment": "Protection against hyperlipidemia in high fat diet-fed hyperlipidemic ICR mouse model assessed as reduction in body weight at 10 mg/kg, ig administered daily via gavage for 8 weeks", "assay_type": "functional", "settings": "po, 1344 h"}, "[28]": {"tested_on": "Mus musculus", "experiment": "Protection against hyperlipidemia in high fat diet-fed hyperlipidemic ICR mouse model assessed as reduction in serum triglyceride content at 20 mg/kg, ig administered daily via gavage for 8 weeks by spectrophotometric analysis", "assay_type": "functional, organism-based"}, "[29]": {"tested_on": "Mus musculus", "experiment": "Upregulation of SR-B1 protein expression in liver of normal diet fed ICR mouse at 10 mg/kg, ig administered daily via gavage for 8 weeks by western blotting analysis", "assay_type": "functional, organism-based"}}, "note": "The source made the active and inactive calls. The rule behind the calls is not given here.", "data": [{"compound": "CN1c2ccccc2C(=O)N2CCc3c([nH]c4ccccc34)C21", "note": "(centres undefined)", "values": [{"measurement": "Ratio", "setting": "[1]", "result": 3.85}, {"measurement": "Activity", "setting": "[2]", "result": "inactive"}, {"measurement": "Ratio", "setting": "[3]", "result": 1.29}, {"measurement": "Activity", "setting": "[4]", "result": "Active"}, {"measurement": "Activity", "setting": "[5]", "result": "Non-Toxic"}, {"measurement": "Activity", "setting": "[6]", "result": "inactive"}, {"measurement": "fold change (FC)", "setting": "[7]", "result": 1.04}, {"measurement": "Ratio", "setting": "[8]", "result": 0.81}, {"measurement": "Activity", "setting": "[9]", "result": "inactive"}, {"measurement": "Activity", "setting": "[10]", "result": "inactive"}, {"measurement": "Activity", "setting": "[11]", "result": "inactive"}, {"measurement": "Activity", "setting": "[12]", "result": "Non-Toxic"}, {"measurement": "inhibition in vivo at 10 mg/kg", "setting": "[13]", "result": 34, "unit": "%"}, {"measurement": "Activity", "setting": "[14]", "result": "Active"}, {"measurement": "Ratio", "setting": "[15]", "result": 1.22}, {"measurement": "Activity", "setting": "[16]", "result": "Active"}, {"measurement": "Activity", "setting": "[17]", "result": "Active"}, {"measurement": "Activity", "setting": "[18]", "result": "inactive"}, {"measurement": "Activity", "setting": "[19]", "result": "Active"}, {"measurement": "Activity", "setting": "[20]", "result": "Non-Toxic"}, {"measurement": "Activity", "setting": "[21]", "result": "Non-Toxic"}, {"measurement": "inhibition in vivo at 10 mg/kg", "setting": "[22]", "result": 65.1, "unit": "%"}, {"measurement": "Ratio", "setting": "[23]", "result": 0.49}, {"measurement": "fold change (FC)", "setting": "[24]", "result": 1.53}, {"measurement": "Activity", "setting": "[25]", "result": "Non-Toxic"}, {"measurement": "Activity", "setting": "[26]", "result": "Active"}, {"measurement": "inhibition in vivo at 10 mg/kg", "setting": "[27]", "result": 68.1, "unit": "%"}, {"measurement": "Activity", "setting": "[28]", "result": "Active"}, {"measurement": "Activity", "setting": "[29]", "result": "Active"}]}]}
